From publication PMC12040169 (PLOS Biology, 2025)

Experiment: in vitro
Conditions: human, hela cells, % viability

Compound	viability at 28.5 h, 10 µM [%]
O=C(CCCn1ccnc1)N1CCc2[nH]c3ccccc3c2C1 [CBK281872]	101
Cn1c(CCC(=O)NCC(C)(C)N2CCCCC2)nc2ccccc21 [CBK281877]	92.9
CC(C)(CNC(=O)Cn1cnc2ccccc21)N1CCCCC1 [CBK281879]	95.8
CCn1c(C)nc2cc(NC(=O)c3ccc(CN(C)C)cc3)ccc21 [CBK281880]	106
CCC(c1ccc(F)cc1)n1cncc1-c1cnn(C)c1 (centres unmarked) [CBK281883]	95.7
CC(NC(=O)Cn1cnc2ccccc21)c1ccccn1 (centres unmarked) [CBK281884]	96.7
Cc1nc2ccc(C(=O)NC(C)c3ccccn3)cc2s1 (centres unmarked) [CBK281890]	94.6
O=C1CC[C@@H](C(=O)N2CCc3nc(-c4ccccc4F)sc3C2)N1 [CBK281891]	82.1
Cn1c(CN2CCN(C3CCCCC3)C(=O)C2)nc2ccccc21 [CBK281893]	90.9
Cc1cc(C(=O)NCCn2ccnc2C)nc2ccccc12 [CBK281894]	101
Cc1cc(C(=O)NCCn2ccnc2C)c2ccccc2n1 [CBK281895]	100
Cn1nccc1CN1CCCC(COc2ccc(F)cc2)C1 (centres unmarked) [CBK281899]	95.2
CN(CCN1CCCCC1)C(=O)Cn1ccnc1-c1ccccc1 [CBK281900]	91.3
Cc1ncc(CN2CCCC(Cc3nc4ccccc4[nH]3)C2)s1 (centres unmarked) [CBK281902]	99.7
Cc1ccc(C2(C(=O)NC(C)c3ccccn3)CCOCC2)cc1 (centres unmarked) [CBK281903]	90.5
CN(CCN1CCCCC1)C(=O)c1c2c(nn1C)CCCC2 [CBK281905]	102
Cc1oc2c(c1C(=O)N(C)CCN1CCCCC1)CCCC2 [CBK281907]	90.8
Cc1cc(CN(C)Cc2cnn(-c3ccc(Cl)cc3)c2)n[nH]1 [CBK281912]	99.3
Cc1cc(CN(C)Cc2c(C)nc3ccc(Cl)cn23)n[nH]1 [CBK281913]	108
O=C(c1cc[nH]n1)N1CCc2nc(-c3cccc(F)c3)sc2C1 [CBK281915]	84.9
Cc1nc(C(F)(F)F)ccc1C(=O)N(C)CCN1CCCCC1 [CBK281917]	87.3
CN(C)CC(=O)N1CCc2nc(-c3ccccc3F)sc2C1 [CBK281918]	85.6
Cc1nc2ccc(C(=O)N(C)CCN3CCCCC3)cc2s1 [CBK281919]	93.4
CCN(C(=O)c1cc(C)nc2ccccc12)C1CCN(C)CC1 [CBK281920]	106

Compound	viability at 28.5 h, 10 µM [%]
CC(C)c1nnc(CCC(=O)N2CCC(c3ccccc3)C2)o1 (centres unmarked) [CBK281925]	89.3
Cc1ccc2cc(CNc3ccc4[nH]ncc4c3)c(=O)[nH]c2c1 [CBK281935]	86.1
O=C(NC1CCCC1)c1ncoc1-c1ccccc1 [CBK281937]	100
CCc1ccc2nc3c(cc2c1)CNCCO3 [CBK281940]	91.6
O=C(c1ccccc1F)N1CCC(O)(c2ccc(F)cc2)CC1 [CBK281943]	80.9
O=C(Nc1ccc(F)cc1)N1C2CCC1CC(O)(c1cccnc1)C2 (centres unmarked) [CBK281946]	89.9
CN(C)Cc1ccc(C(=O)N2CCCC2(C)C(=O)N(C)C)cc1 (centres unmarked) [CBK281955]	90
Cc1cc(C(=O)N(C)CC2(C)COC2)nc2ccccc12 [CBK281956]	90.2
CC1CCN(S(=O)(=O)N2CCCC2c2cccc(F)c2)CC1 (centres unmarked) [CBK281957]	93.2
Cc1c(CN2CCCC2(C)C(=O)NC2CCCC2)cnn1C (centres unmarked) [CBK281960]	108
O=C1CN(Cc2ccc3ccccc3n2)CCN1C1CCCC1 [CBK281961]	88.6
Cc1nccn1CCNC(=O)CCc1cn(C)c2ccccc12 [CBK281962]	86.1
CN(CC1(C)COC1)C(=O)Cc1cccc2cccnc12 [CBK281963]	91.7
Cc1ccn2c(CN3CCCC(Cn4ccnc4C)C3)c(C)nc2c1 (centres unmarked) [CBK281964]	86.6
Cc1nccn1CC1CCCN(Cc2ccnc3ccccc23)C1 (centres unmarked) [CBK281966]	84.7
Cc1cccc(CCNC(=O)C2CN(C(=O)C3CCN(C)CC3)C2)c1 [CBK281967]	98.4
Cc1nn(C)cc1CN1CCC(C(=O)NCCc2ccccc2)C1 (centres unmarked) [CBK281968]	111
CN(C)C(=O)C1CN(C(=O)C(C)(C)c2ccccc2F)C1 [CBK281970]	113
Cc1nn(C)cc1-c1cncn1CCCn1ccnc1C(C)C [CBK281972]	81.6
Cc1nccn1CCC1CCN(C(=O)CC2CCCCO2)CC1 (centres unmarked) [CBK281974]	84.3
Cc1nccn1CCNC(=O)CCc1nc2ccccc2n1C [CBK281978]	95.3
Cc1nccn1CCNC(=O)c1ccccc1Cn1cccn1 [CBK281979]	101
CC(C)(C)NC(=O)Cn1cncc1-c1ccc2c(c1)CC(C)(C)O2 [CBK281980]	113
CCN1CCC(CC(=O)NCCn2ccnc2C)CC1 [CBK281984]	108

Compound	viability at 28.5 h, 10 µM [%]
Cc1nn(C)cc1-c1cncn1Cc1ccccc1CN(C)C [CBK281985]	102
O=C(CCCn1ccnc1)Nc1ccc(OC2CCCC2)cc1 [CBK281986]	92.3
Cc1nn(C)cc1-c1cncn1C(CCN(C)C)c1ccccc1 (centres unmarked) [CBK281987]	92.3
Cc1nccn1CCC1CCN(C(=O)CCCn2ccnc2)CC1 [CBK281988]	95.3
Cc1cc(CN(C)Cc2ccc(-n3ccnc3C)cc2)n[nH]1 [CBK281989]	97.6
Cc1nccn1CCN(C)C(=O)c1ccc2c(c1)ncn2C [CBK281993]	98.8
CCN(C(=O)CCc1nc2ccccc2n1C)C1CCN(C)CC1 [CBK281994]	89.9
COc1ccccc1C1CCCN1Cc1c(C)nc2ccccn12 (centres unmarked) [CBK281995]	91.9
Cc1cnn(CC(=O)N2CCCC(COc3ccccc3F)C2)c1 (centres unmarked) [CBK281999]	102
Cc1nn(C)c(C)c1CN(C)C(=O)CCC(C)N1CCCC1 (centres unmarked) [CBK282001]	101
CN(C)CC1CCCN(C(=O)C2C3CCCCC32)C1 (centres unmarked) [CBK282002]	82.3
Cc1cc(N(C)C)cc(C2CCCN(C(=O)c3cccc(F)c3)C2)n1 (centres unmarked) [CBK282003]	95.1
Cc1cc(S(=O)(=O)NCC(C)n2nc(C)c(C)c2C)ccc1F (centres unmarked) [CBK282010]	87.4
O=C(c1ccccc1F)N1CCN(C(=O)[C@@H]2C[C@@H]3C=C[C@H]2C3)CC1 [CBK282011]	89.1
CSc1nnc(C2CCCN2C(=O)[C@@H]2C[C@@H]3C=C[C@H]2C3)n1C (some centres unmarked) [CBK282012]	79.8
CN1CCN(C(=O)c2cccc(-n3cccn3)c2)C(c2ccccc2)C1 (centres unmarked) [CBK282013]	90.5
CN1CCN(C(=O)CCC2CCCO2)C(c2ccccc2)C1 (centres unmarked) [CBK282015]	101
CC(Cn1cc(Cl)cn1)C(=O)N1CCN(C)CC1c1ccccc1 (centres unmarked) [CBK282016]	111
CCn1nc(C(C)C)cc1C(=O)N1CCN(C)CC1c1ccccc1 (centres unmarked) [CBK282025]	100
CC(C(=O)N1CCCC(COc2ccc(F)cc2)C1)n1ccnc1 (centres unmarked) [CBK282027]	85.8
CCc1nccn1CCC(=O)NC(c1ccc(C)cc1)c1cccnc1 (centres unmarked) [CBK282032]	103
O=C(CCCc1ccccn1)N(Cc1ccccn1)C1CCCC1 [CBK282033]	99.9
COC(C)CN(C)C(=O)c1cc2cc(C)ccc2nc1C (centres unmarked) [CBK282036]	86.5
COc1ccc2oc(C(=O)N(C)CC(C)OC)c(C)c2c1 (centres unmarked) [CBK282037]	94.4

Compound	viability at 28.5 h, 10 µM [%]
Cc1c(CN2CCC(N(C)CCN(C)C)CC2)oc2ccccc12 [CBK282038]	86.1
CCn1cc(CN2CCN(C(=O)c3csc(C(C)C)c3)CC2)cn1 [CBK282044]	88.1
CCCc1cc(CNC(=O)CN2CCCC(C)C2)on1 (centres unmarked) [CBK282045]	99.8
CCCc1cc(CNC(=O)c2cc(C3CC3)nn2C)on1 [CBK282048]	102
Cc1ccc(CCNC(=O)c2snnc2C)cc1C [CBK282051]	89.6
COc1ccc2oc(C(=O)NC(C)(C)CN3CCCCC3)cc2c1 [CBK282053]	93.8
CCN1CCCCC1CNC(=O)Cn1nc(C)cc1C (centres unmarked) [CBK282057]	98.6
COc1ccc(C(=O)N2CCN3C(=O)CCC32C)s1 (centres unmarked) [CBK282058]	98.4
CCCC(C(=O)NC(C)(C)CN1CCCCC1)n1nc(C)cc1C (centres unmarked) [CBK282061]	94.8
Cc1ccccc1OCC1CCCN(C(=O)C2CC(=O)OC2(C)C)C1 (centres unmarked) [CBK282062]	92.7
CN1CCCC(NC(=O)CCCOc2ccccc2F)C1 (centres unmarked) [CBK282072]	101
CC(=O)NCCn1cc2c(n1)[C@H]1CN(C(=O)c3ccccc3)C[C@H]1C2 [CBK282073]	111
CC(Cn1cccn1)C(=O)N1CCc2sccc2C1C (centres unmarked) [CBK282074]	103
CN(CC(=O)N(C)CC(F)(F)F)Cc1cccnc1 [CBK282075]	89.1
CCn1nc(C)c(C(C)NC(=O)c2c3c(nn2CC)CCCC3)c1C (centres unmarked) [CBK282077]	85
CCc1noc(C)c1C(=O)NCCN1CC(C)CC(C)C1 (centres unmarked) [CBK282081]	113
C=C1C2(C(=O)N3CCC(Oc4cccnc4)CC3)CCC(C2)C1(C)C (centres unmarked) [CBK282082]	107
CN(C)CC1CCCCN1C(=O)[C@@H]1C[C@@H]2C=C[C@H]1C2 (some centres unmarked) [CBK282086]	105
Cc1nn(C)cc1C(C)NC(=O)C1CC2C=CC1C21CC1 (centres unmarked) [CBK282088]	100
CC(Cn1cncn1)C(=O)NC(C)C1CC2CCC1C2 (centres unmarked) [CBK282089]	109
CC(NC(=O)CCc1ccncc1)C1CC2CCC1C2 (centres unmarked) [CBK282090]	99.8
CC(C)CN1CC(C(=O)N(C)CC2OCCc3ccccc32)CC1=O (centres unmarked) [CBK282093]	102
CC1Cc2cc(C(=O)N3CCCCC3CCN3CCCC3)ccc2O1 (centres unmarked) [CBK282094]	100
